Patent US12180187B2, “1-phenyl-5-azinylpyrazolyl-3-oxyalkyl acids and their use for controlling unwanted plant growth” (BAYER AKTIENGESELLSCHAFT, priority 2019, dated 2024)

How the values were obtained:
STEME = experiment: Post-emergence action against STEME, 1.28 kg/ha; type: in vivo, Stellaria media; details: dosage 1280 g/ha, visual rating about 3 weeks after treatment vs untreated controls (100% = plants died)
In short: (§1)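 Herbicidal action is estimated by eye after about three weeks under optimum greenhouse conditions, on a 0–100% scale against untreated plants. Compounds are applied post-emergence to one-leaf-stage weeds as aqueous WP or EC preparations containing 0.5% additive, sprayed at 600 L/ha.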

MATIN = experiment: Pre-emergence action at 320 g/ha against MATIN; type: in vivo, Tripleurospermum inodorum (Matricaria inodora); details: visual scoring after about 3 weeks vs untreated controls
In short: (§2)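 Pre-emergence soil-surface spray: WP or EC formulation, aqueous, 0.5% additive, 600 l/ha water volume. Greenhouse growth about 3 weeks; visual percent effect relative to untreated pots.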

POLCO = experiment: Post-emergence action at 320 g/ha against POLCO; type: in vivo, Fallopia convolvulus (Polygonum convolvulus); details: visual rating about 3 weeks after treatment vs untreated controls
In short: (§3)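 Greenhouse pot plants in sandy loam received a foliar spray of WP- or EC-formulated compound at the one-leaf stage. Percent activity against untreated controls was assessed visually around three weeks later.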

AMARE [1] = experiment: Post-emergence action against AMARE, 1.28 kg/ha; type: in vivo, Amaranthus retroflexus; details: dosage 1280 g/ha, visual rating about 3 weeks after treatment vs untreated controls (100% = plants died)
In short: as §1

DIGSA = experiment: Post-emergence action at 320 g/ha against DIGSA; type: in vivo, Digitaria sanguinalis; details: dosage 320 g/ha, visual rating about 3 weeks after treatment vs untreated controls (100% = plants died)
In short: as §3

ECHCG [2] = experiment: Post-emergence action at 320 g/ha against ECHCG; type: in vivo, Echinochloa crus-galli; details: dosage 320 g/ha, visual rating about 3 weeks after treatment vs untreated controls (100% = plants died)
In short: as §3

SETVI = experiment: Post-emergence action against SETVI, 1.28 kg/ha; type: in vivo, Setaria viridis; details: dosage 1280 g/ha, visual rating about 3 weeks after treatment vs untreated controls
In short: as §1

ECHCG [3] = experiment: Post-emergence action against ECHCG, 1.28 kg/ha; type: in vivo, Echinochloa crus-galli; details: dosage 1280 g/ha, visual rating about 3 weeks after treatment vs untreated controls
In short: as §1

VERPE = experiment: Pre-emergence action at 320 g/ha against VERPE; type: in vivo, Veronica persica; details: visual scoring after about 3 weeks vs untreated controls
In short: as §2

ECHGC = experiment: Pre-emergence action at 320 g/ha against ECHGC; type: in vivo, Echinochloa crus-galli; details: visual scoring after about 3 weeks vs untreated controls
In short: as §2

VIOTR = experiment: Pre-emergence action at 320 g/ha against VIOTR; type: in vivo, Viola tricolor; details: dosage 320 g/ha
In short: as §2

AMARE [4] = experiment: Post-emergence action at 320 g/ha against AMARE; type: in vivo, Amaranthus retroflexus; details: visual rating about 3 weeks after treatment vs untreated controls
In short: as §3

ABUTH [5] = experiment: Pre-emergence action against ABUTH, 1280 g/ha; type: in vivo, Abutilon theophrasti; details: scored visually after about 3 weeks vs untreated controls (100% = plants have died)
In short: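 In greenhouse pots of sandy loam, sown weed seeds were covered with soil and treated pre-emergence with the compound in water (600 L/ha, 0.5% additive). Efficacy was assessed visually as percent of untreated control after about 3 weeks.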

LOLRI = experiment: Post-emergence action against LOLRI, 1.28 kg/ha; type: in vivo, Lolium rigidum; details: dosage 1280 g/ha, visual rating about 3 weeks after treatment vs untreated controls
In short: as §1

PHBPU = experiment: Post-emergence action at 320 g/ha against PHBPU; type: in vivo; details: visual rating about 3 weeks after treatment vs untreated controls
In short: as §3

ABUTH [6] = experiment: Post-emergence action at 320 g/ha against ABUTH; type: in vivo, Abutilon theophrasti; details: visual rating about 3 weeks after treatment vs untreated controls
In short: as §3

Structure (SMILES) | Post-emergence action against STEME (STEME) | Pre-emergence action against MATIN in % (MATIN) | Post-emergence action against POLCO in % (POLCO) | Post-emergence action against AMARE (AMARE [1]) | Post-emergence action at 320 g/ha against DIGSA in % (DIGSA) | Post-emergence action at 320 g/ha against ECHCG in % (ECHCG [2]) | Post-emergence action against SETVI (SETVI) | Post-emergence action against ECHCG (ECHCG [3]) | Pre-emergence action against VERPE in % (VERPE) | Pre-emergence action against ECHGC in % (ECHGC) | Pre-emergence action against VIOTR in % (VIOTR) | Post-emergence action against AMARE in % (AMARE [4]) | Pre-emergence action against ABUTH (ABUTH [5]) | Post-emergence action against LOLRI (LOLRI) | Post-emergence action against PHBPU in % (PHBPU) | Post-emergence action against ABUTH in % (ABUTH [6])
COC(=O)COc1nn(-c2ccccc2F)c(-c2ccc(F)nc2)c1C(F)(F)F [VII-031] | 100% | 100% | 90% | 90% | 100% | 90% | 90% | 100% | 100% | 90% | 100% | 90% | 90% | 100% | 90% | 90%
COC(=O)COc1nn(-c2ccccc2F)c(-c2cncc(F)c2)c1Br [VII-035] | 100% | 100% | 90% | 90% | 100% | 90% | 90% | 100% | 100% | 90% | 100% | 90% | 90% | 100% | 100% | 90%
COC(=O)CCOC(=O)COc1nn(-c2ccccc2F)c(-c2ccc(F)nc2)c1Br [VII-111] | 100% | 90% | 90% | 90% | 90% | 90% | 100% | 100% | 100% | 100% | 100% | 90% | 90% | 90% | 80% | 80%
